Data on seven compounds can be found in article PMC8881469, “Molecular recognition of formylpeptides and diverse agonists by the formylpeptide receptors FPR1 and FPR2” (Nature Communications, 2022).

Read-outs that look alike come from different tables or passages of the source.

One experiment deals with FPR2 F110A. The experiment can be described thus: cAMP accumulation assay, HEK293 cells, Epac-based FRET biosensor H187, 1 µM forskolin. The experiment is classed as cell-based, human. How it is done: (§1) An Epac-based FRET cAMP biosensor H187 was used to measure cellular cAMP levels. The plasmid encoding H187 was transfected into HEK293 cells to make stable cells reporting intracellular cAMP levels. In brief, the H187 stable cells were seeded in poly-D-lysine treated 96-well black clear-bottom plate at 30,000 cells per well. 24 h later, cells were transiently transfected with DNA encoding the N-terminal FLAG-tagged wild-type FPR1, FPR2 or mutants at an amount of 0.1 µg DNA per well. Assays were performed 24 h after transfection. Cells were washed twice with HBSS buffer and incubated at room temperature for 30 min before the addition of forskolin to a final concentration of 1 µM. The intracellular cAMP level was measured using a multimode reader (Spark 20 M, TECAN) measuring the fluorescence emission intensity at 485 nm and 535 nm upon the excitation at 430 nm. 15 min after forskolin incubation, cells were stimulated with agonists at different concentrations and measured for additional 20 min. The FRET signal was calculated as the normalized FRET ratio of fluorescence emission at 535 nm (F535) divided by emission at 485 nm (F485). The EC50 was determined with the FRET ratio at the timepoint of 1600 s. The data analysis was performed using the nonlinear regression fit logIC50 mode in GraphPad Prism.

Experiment [1] has as its system FPR2 R205A. The experiment is described as above. Format: cell-based, human. How it is done: as §1
The test system of experiment [2] is FPR2 R201A. The experiment is described as above. The experiment is classed as cell-based, human. How it is done:
as §1

For experiment [3], the system named is FPR1. The conditions noted are these: cited from earlier work.
In experiment [4] the test system is FPR2. The settings on record: cited from earlier work.
Experiment [5] concerns FPR2. The conditions noted are these: relative to C43; cited from earlier work. An excerpt: Similar to peptide agonists, C43 causes conformational changes of residues in the activation chamber including V113^3.40 and W254^6.48 through direct interactions to activate the receptor.
In a further experiment the test system is FPR1 versus FPR2. The settings on record: cited from earlier work.
The conditions of experiment [6]: multiple studies; cited from earlier work.
The subject of experiment [7] is FPR2. The settings on record: at various concentrations; cited from earlier work. An excerpt: This may be due to the coupling of Gi, which stabilizes the receptor in one active conformation. Thus, it is difficult to speculate on the specific conformational states of FPR2 associated with pro-inflammatory and pro-resolving agonists.
A further experiment concerns FPR1 F102H. Description: cAMP accumulation assay, HEK293 cells, Epac-based FRET biosensor H187, 1 µM forskolin. The experiment is classed as cell-based, human. The settings on record: FPR1 F102H vs wild type. How it is done:
as §1
For orientation: cAMP levels reflect the balance of adenylyl cyclase and phosphodiesterase activity.

A further experiment has as its system FPR1 R201A. Described as above. The experiment is classed as cell-based, human. The settings on record: FPR1 R201A vs wild type. The procedure: as §1
The next experiment deals with FPR1 R205A. Described as above. Format: cell-based, human. The settings on record: FPR1 R205A vs wild type. The procedure: as §1
A further experiment concerns FPR1 R84D. The experiment is described as above. Format: cell-based, human. The conditions noted are these: FPR1 R84D vs wild type. How it is done: as §1
For a further experiment, the system named is FPR1 D106A. The description is as above. Format: cell-based, human. The settings on record: FPR1 D106A vs wild type. The procedure:
as §1

The subject of another experiment is FPR1 Y257F. The description is as above. The conditions noted are these: FPR1 Y257F vs wild type. The experiment is classed as cell-based, human. How it is done: as §1
Experiment [8] relates to FPR1. The conditions noted are these: short formylpeptides; cited from earlier work. From the text: The human formylpeptide receptor (FPR) family comprises of three members, FPR1, FPR2 (also named FPRL1), and FPR3[1]. They were initially discovered and characterized as pattern recognition G protein-coupled receptors (GPCRs) to recognize peptides with N-terminal formyl methionine, which are derived from invading pathogens or host mitochondria as pathogen- or damage-associated molecular patterns (PAMPs and DAMPs)[1]–[5]. FPR1 and FPR2 share a high sequence similarity, yet they display different preferences of formylpeptides. FPR1 is a high-affinity receptor for many short formylpeptides suc ...

Experiment [9] deals with FPR2 R205A. The settings on record: cited from earlier work. An excerpt: (§2) To investigate critical structural determinants for the binding of CGEN-885A, we measured the CGEN-885A-induced signaling of FPR2 with mutations of residues in the CGEN-885A-binding pocket. […] Considering the negatively charged environment of the ligand-b ...
For experiment [10], the system named is FPR2 R201A. The conditions noted are these: cited from earlier work.
From the text: as §2

On to `CC(C)c1c(NC(=O)Nc2ccc(Cl)cc2)c(=O)n(-c2ccccc2)n1C` [C43], for which the “agonistic action, effect of mutation F110A” value in the experiment on FPR2 F110A is given as “nearly undetectable agonistic action”. For the same compound, in the experiment with FPR2 R205A [1], the “agonistic action, effect of mutation R205A” value was “nearly undetectable agonistic action”. Moreover, in the experiment on FPR2 R201A [2], the “agonistic action, effect of mutation R201A” value was “nearly undetectable agonistic action”. The “agonist activity on FPR1” value in the experiment on FPR1 [3] (small-molecule agonist) is given as “potent”. In addition, the “agonist activity on FPR2” value in the experiment with FPR2 [4] (small-molecule agonist) is “potent”. For the same compound, the “ligand potency on alternating the para-position of the chloride group” value in the experiment on FPR2 [5] is recorded as “significant loss of ligand potency”.

Regarding “fMLFII [formylpeptide agonist for both FPR1 and FPR2]”, the “fold higher potency in activating FPR1 than FPR2” value in the experiment with FPR1 versus FPR2 (FPR1 relative to FPR2) was ~ 100 fold. The “affinity for FPR1 relative to FPR2” value in the experiment on FPR1 versus FPR2 (FPR1 vs FPR2) was “higher affinity”. For the same compound, in the experiment on FPR1 [3] (formylpeptide agonist), the “agonist activity on FPR1” value was “potent”. Also, in the experiment on FPR2 [4] (formylpeptide agonist), the “agonist activity on FPR2” value is “potent”.

As to `COc1cc(F)c([C@@H]2CNC(=O)[C@H]2NC(=O)Nc2ccccc2)c(F)c1` [BMS-986235], the “pro-resolving and cardiac protective effects” value in experiment [6] was “pro-resolving and cardiac protective effects”.

Turning to `CCCCC[C@@H](O)/C=C/C=C\C=C\C=C\[C@@H](O)[C@@H](O)CCCC(=O)O` [ATL, aspirin-triggered 15-epi-lipoxin A4], the FPR2 signaling responses entry in the experiment on FPR2 [7] is on record as “unusual biphasic signaling responses”.

As for `COc1cccc(Cc2cc(C)nn(C(C)C(=O)Nc3ccc(Br)cc3)c2=O)c1` (centres unmarked) [Compound 17b], the “pro-resolving and cardiac protective effects” value in experiment [6] is “pro-resolving and cardiac protective effects”.

As to “N-formyl-Met-Leu-Phe [fMLF, prototypical formylpeptide]”, the “fold less potent (in terms of EC50) in inducing FPR2 signaling than FPR1” value in the experiment on FPR1 versus FPR2 (FPR2 relative to FPR1) is “about 1000 fold”. Also, the “potency in activating FPR1, effect of mutation of F102 to FPR2 counterpart” value in the experiment on FPR1 F102H is on record as “reduced potency”. Also, the “agonistic potency, effect of mutation R201A” value with FPR1 R201A is on record as “compromised agonistic potency”. For the same compound, the “agonistic potency, effect of mutation R205A” value in the experiment on FPR1 R205A is “compromised agonistic potency”. Moreover, in the experiment on FPR1 R84D, the “potency in activating FPR1, effect of mutation R84D” value is given as “reduces the potency”. Also, the “agonistic potency, effect of mutation D106A” value in the experiment with FPR1 D106A is given as “compromised agonistic potency”. Further, in the experiment with FPR1 Y257F, the “potency in activating FPR1, effect of mutation of Y257 to FPR2 counterpart” value was “reduced potency”. Further, the FPR1 affinity entry in the experiment on FPR1 [8] is given as “high-affinity”.

For the compound WKYMVm, in the experiment with FPR2 R205A [9], the “agonistic activity, effect of mutation R205A” value was “much compromised agonistic activities”. Further, the “agonistic activity, effect of mutation R201A” value in the experiment with FPR2 R201A [10] is “much compromised agonistic activities”.
